According to US11524938B2, “Aromatic sulfonamide derivatives” (Bayer Pharma Aktiengesellschaft, priority 2016, dated 2022):

Target: T1, human P2X4 (Homo sapiens, UniProt Q99571)
T1 sequence (Q99571 1-388): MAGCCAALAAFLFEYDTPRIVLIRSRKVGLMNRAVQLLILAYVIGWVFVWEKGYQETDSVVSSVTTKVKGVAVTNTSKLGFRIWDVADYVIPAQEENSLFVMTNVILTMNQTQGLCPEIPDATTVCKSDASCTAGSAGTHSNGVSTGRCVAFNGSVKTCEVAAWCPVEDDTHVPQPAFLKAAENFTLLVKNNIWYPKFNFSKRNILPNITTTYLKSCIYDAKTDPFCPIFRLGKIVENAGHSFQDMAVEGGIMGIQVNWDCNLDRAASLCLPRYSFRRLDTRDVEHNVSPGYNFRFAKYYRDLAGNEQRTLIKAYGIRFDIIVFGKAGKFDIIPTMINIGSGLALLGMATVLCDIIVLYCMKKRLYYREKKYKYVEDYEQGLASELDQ
Assay: Human P2X4 HEK Cell FLIPR Assay
Assay type: cell-based
Conditions: agonist Bz-ATP at EC80; for Emax: HEK293, HEK293 cells, percentage of maximal inhibition, read-out: Human P2X4 HEK Cells (FLIPR Assay) avg Efficacy [%]; for IC50: HEK293 cells, individual values listed where some fall outside detection range
How it was run: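 Calcium flux read by FLIPR for 120 sec after Bz-ATP challenge at EC80 (established each assay day), following 30 min room-temperature compound preincubation in dye-loaded stable human P2X4 HEK293 cells. Peak RFU over basal normalized to agonist control; IC50, maximal inhibition and Hill coefficient from triplicate means.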

| Structure (SMILES) | Emax | IC50 |
| --- | --- | --- |
| COCc1ncn(-c2ccc(NC(=O)Cc3ccccc3Cl)cc2S(N)(=O)=O)n1 [Example 38, 2-(2-Chlorophenyl)-N-{4-[3-(methoxymethyl)-1H-1,2,4-triazol-1-yl]-3-sulfamoyl-phenyl}acetamide] | 87% | 0.329 µM |
| CC(C)(O)c1cc(F)cc(-c2ccc(NC(=O)Cc3ccccc3Cl)cc2S(N)(=O)=O)c1 [Example 340, 2-(2-Chlorophenyl)-N-[3′-fluoro-5′-(2-hydroxypropan-2-yl)-2-sulfamoylbiphenyl-4-yl]acetamide] | 89% | 0.034 µM |
| N#Cc1ncn(-c2ccc(NC(=O)Cc3ccccc3Cl)cc2S(N)(=O)=O)n1 [Example 41, 2-(2-Chlorophenyl)-N-[4-(3-cyano-1H-1,2,4-triazol-1-yl)-3-sulfamoylphenyl]acetamide] | 70% | 0.357 µM |
| COc1ccc(Cl)cc1CC(=O)Nc1ccc(-n2cc(C#N)cn2)c(S(N)(=O)=O)c1 [Example 212, 2-(5-Chloro-2-methoxyphenyl)-N-[4-(4-cyano-1H-pyrazol-1-yl)-3-sulfamoylphenyl]-acetamide] | 86% | 0.149 µM |
| NS(=O)(=O)c1cc(NC(=O)Cc2ccc(Cl)cc2Cl)ccc1-n1cc(F)cn1 [Example 178, 2-(2,4-Dichlorophenyl)-N-[4-(4-fluoro-1H-pyrazol-1-yl)-3-sulfamoylphenyl]acetamide] | 70% | 0.04 µM |
| NS(=O)(=O)c1cc(NC(=O)Cc2ccccc2Cl)ccc1-c1cnn(CC2CC2(Cl)Cl)c1 (stereo not shown) [Example 357, 2-(2-Chlorophenyl)-N-(4-{1-[(2,2-dichlorocyclopropyl)methyl]-1H-pyrazol-4-yl}-3-sulfamoylphenyl)acetamide] | 87% | 0.071 µM |
| NS(=O)(=O)c1cc(NC(=O)Cc2ccccc2Cl)ccc1-c1cnc(C(F)(F)F)s1 [Example 483, 2-(2-Chlorophenyl)-N-{3-sulfamoyl-4-[2-(trifluoromethyl)-1,3-thiazol-5-yl]phenyl}acetamide] | 86% | 0.071 µM |
| NS(=O)(=O)c1cc(NC(=O)Cc2ccc(Cl)cc2Cl)ccc1-n1cc(C(F)(F)F)cn1 [Example 111, 2-(2,4-Dichlorophenyl)-N-{3-sulfamoyl-4-[4-(trifluoromethyl)-1H-pyrazol-1-yl]phenyl}-acetamide] | 58% | 0.373 µM |
| Cc1nc(C)c(-c2ccc(NC(=O)Cc3ccccc3Cl)cc2S(N)(=O)=O)s1 [Example 503, 2-(2-Chlorophenyl)-N-[4-(2,4-dimethyl-1,3-thiazol-5-yl)-3-sulfamoylphenyl]acetamide] | 102% | 0.047 µM |
| NS(=O)(=O)c1cc(NC(=O)Cc2c(Cl)cccc2C(F)(F)F)c(C(F)(F)F)cc1-n1cc(F)cn1 [Example 535, 2-[2-Chloro-6-(trifluoromethyl)phenyl]-N-[4-(4-fluoro-1H-pyrazol-1-yl)-5-sulfamoyl-2-(trifluoromethyl)phenyl]acetamide] | 91% | 3.84 µM |
| Cc1cc(-c2ccc(NC(=O)Cc3ccccc3Cl)cc2S(N)(=O)=O)cnc1Cl [Example 298, N-[4-(6-Chloro-5-methylpyridin-3-yl)-3-sulfamoylphenyl]-2-(2-chlorophenyl)acetamide] | 104% | 0.108 µM |
| Cc1cccc(CC(=O)Nc2ccc(-n3cc(Cl)cn3)c(S(N)(=O)=O)c2)c1 [Example 174, N-[4-(4-Chloro-1H-pyrazol-1-yl)-3-sulfamoylphenyl]-2-(3-methylphenyl)acetamide] | 79% | 0.045 µM |
| NS(=O)(=O)c1cc(NC(=O)Cc2ccccc2Cl)ccc1-c1cncc(C(=O)N2CCCC2)c1 [Example 366, 2-(2-Chlorophenyl)-N-{4-[5-(pyrrolidin-1-ylcarbonyl)pyridin-3-yl]-3-sulfamoylphenyl}acetamide] | 97% | 0.128 µM |
| CN(C)C(=O)c1cnn(-c2ccc(NC(=O)Cc3ccccc3Cl)cc2S(N)(=O)=O)c1 [Example 399, 1-(4-{[(2-Chlorophenyl)acetyl]amino}-2-sulfamoylphenyl)-N,N-dimethyl-1H-pyrazole-4-carboxamide] | 92% | 0.084 µM |
| COc1ccc(CC(=O)Nc2ccc(-n3cc(C#N)cn3)c(S(N)(=O)=O)c2)c(Cl)c1 [Example 210, 2-(2-Chloro-4-methoxyphenyl)-N-[4-(4-cyano-1H-pyrazol-1-yl)-3-sulfamoylphenyl]-acetamide] | 76% | 0.116 µM |
| NS(=O)(=O)c1cc(NC(=O)Cc2ccc(F)c(F)c2)ccc1-c1ccc(Cl)nc1 [Example 468, N-[4-(6-Chloropyridin-3-yl)-3-sulfamoylphenyl]-2-(3,4-difluorophenyl)acetamide] | 97% | 0.278 µM |

| Structure (SMILES) | Emax | IC50 |
| --- | --- | --- |
| N#Cc1cnn(-c2ccc(NC(=O)Cc3c(Cl)cccc3C(F)(F)F)cc2S(N)(=O)=O)c1 [Example 215, 2-[2-Chloro-6-(trifluoromethyl)phenyl]-N-[4-(4-cyano-1H-pyrazol-1-yl)-3-sulfamoylphenyl]acetamide] | 95% | 0.038 µM |
| CSc1cnn(-c2ccc(NC(=O)Cc3ccccc3Cl)cc2S(N)(=O)=O)c1 [Example 30, 2-(2-Chlorophenyl)-N-{4-[4-(methylsulfanyl)-1H-pyrazol-1-yl]-3-sulfamoylphenyl}-acetamide] | 87% | 0.222 µM |
| N#Cc1cnn(-c2ccc(NC(=O)Cc3cc(C(F)(F)F)ccc3Cl)cc2S(N)(=O)=O)c1 [Example 485, 2-[2-Chloro-5-(trifluoromethyl)phenyl]-N-[4-(4-cyano-1H-pyrazol-1-yl)-3-sulfamoylphenyl]acetamide] | 100% | 0.128 µM |
| NS(=O)(=O)c1cc(NC(=O)Cc2ccc(C(F)(F)F)cc2Cl)ccc1-n1ncc(C(F)(F)F)n1 [Example 414, 2-[2-Chloro-4-(trifluoromethyl)phenyl]-N-{3-sulfamoyl-4-[4-(trifluoromethyl)-2H-1,2,3-triazol-2-yl]phenyl}acetamide] | 20% | > 25 µM |
| CC(C)(C)n1cc(-c2ccc(NC(=O)Cc3ccccc3Cl)cc2S(N)(=O)=O)cn1 [Example 335, N-[4-(1-tert-Butyl-1H-pyrazol-4-yl)-3-sulfamoylphenyl]-2-(2-chlorophenyl)acetamide] | 98% | 0.02 µM |
| Cc1nnc(-c2ccc(NC(=O)Cc3ccccc3Cl)cc2S(N)(=O)=O)o1 [Example 524, 2-(2-Chlorophenyl)-N-[4-(5-methyl-1,3,4-oxadiazol-2-yl)-3-sulfamoylphenyl]acetamide] | 87% | 0.322 µM |
| CC(C)Cc1ncn(-c2ccc(NC(=O)Cc3ccccc3Cl)cc2S(N)(=O)=O)n1 [Example 29, 2-(2-Chlorophenyl)-N-[4-(3-isobutyl-1H-1,2,4-triazol-1-yl)-3-sulfamoylphenyl]-acetamide] | 75% | 0.113 µM |
| Cc1cc(C#N)nn1-c1ccc(NC(=O)Cc2ccccc2Cl)cc1S(N)(=O)=O [Example 545, 2-(2-Chlorophenyl)-N-[4-(3-cyano-5-methyl-1H-pyrazol-1-yl)-3-sulfamoylphenyl]acetamide] | 100% | 0.019 µM |
| NS(=O)(=O)c1cc(NC(=O)Cc2cccc(C(F)(F)F)c2Cl)ccc1-n1cc(Cl)cn1 [Example 90, N-[4-(4-Chloro-1H-pyrazol-1-yl)-3-sulfamoylphenyl]-2-[2-chloro-3-(trifluoromethyl)-phenyl]acetamide] | 85% | 0.774 µM |
| NS(=O)(=O)c1cc(NC(=O)Cc2ccccc2Cl)ccc1-n1cc(Cl)cn1 [Example 25, 2-(2-Chlorophenyl)-N-[4-(4-chloro-1H-pyrazol-1-yl)-3-sulfamoylphenyl]acetamide] | 93% |  |
| NS(=O)(=O)c1cc(NC(=O)Cc2ccccc2Cl)ccc1-n1cc(NCC(F)F)cn1 [Example 258, 2-(2-Chlorophenyl)-N-(4-{4-[(2,2-difluoroethyl)amino]-1H-pyrazol-1-yl}-3-sulfamoyl-phenyl)acetamide] | 97% | 0.03 µM |
| NS(=O)(=O)c1cc(NC(=O)Cc2ccccc2Cl)ccc1-n1cc(C(=O)N2CC(F)(F)C2)cn1 [Example 440, 2-(2-Chlorophenyl)-N-(4-{4-[(3,3-difluoroazetidin-1-yl)carbonyl]-1H-pyrazol-1-yl}-3-sulfamoylphenyl)acetamide] | 96% | 0.112 µM |
| CC(C)(C)c1ncn(-c2ccc(NC(=O)Cc3ccccc3Cl)cc2S(N)(=O)=O)n1 [Example 23, N-[4-(3-tert-Butyl-1H-1,2,4-triazol-1-yl)-3-sulfamoylphenyl]-2-(2-chlorophenyl)-acetamide] | 89% | 1.18 µM |
| NS(=O)(=O)c1cc(NC(=O)Cc2cc(F)ccc2Cl)ccc1-n1cc(F)cn1 [Example 168, 2-(2-Chloro-5-fluorophenyl)-N-[4-(4-fluoro-1H-pyrazol-1-yl)-3-sulfamoylphenyl]-acetamide] | 75% | 0.07 µM |
| NS(=O)(=O)c1cc(NC(=O)Cc2ccc(C(F)(F)F)cc2Cl)ccc1-c1ccc(Cl)nc1 [Example 474, N-[4-(6-Chloropyridin-3-yl)-3-sulfamoylphenyl]-2-[2-chloro-4-(trifluoromethyl)phenyl]acetamide] | 93% | 0.323 µM |
